The results in this text go back to patent US20250320206A1, “STAT6 DEGRADERS” (Gilead Sciences, Inc., priority 2024, published 2025).

Test [1] concerns the target T1, STAT6 (Homo sapiens, UniProt P42226).
T1 construct: These cells express endogenous STAT6; host or cells: HeLa LgBiT clone 4.14
T1 sequence (P42226 1-847): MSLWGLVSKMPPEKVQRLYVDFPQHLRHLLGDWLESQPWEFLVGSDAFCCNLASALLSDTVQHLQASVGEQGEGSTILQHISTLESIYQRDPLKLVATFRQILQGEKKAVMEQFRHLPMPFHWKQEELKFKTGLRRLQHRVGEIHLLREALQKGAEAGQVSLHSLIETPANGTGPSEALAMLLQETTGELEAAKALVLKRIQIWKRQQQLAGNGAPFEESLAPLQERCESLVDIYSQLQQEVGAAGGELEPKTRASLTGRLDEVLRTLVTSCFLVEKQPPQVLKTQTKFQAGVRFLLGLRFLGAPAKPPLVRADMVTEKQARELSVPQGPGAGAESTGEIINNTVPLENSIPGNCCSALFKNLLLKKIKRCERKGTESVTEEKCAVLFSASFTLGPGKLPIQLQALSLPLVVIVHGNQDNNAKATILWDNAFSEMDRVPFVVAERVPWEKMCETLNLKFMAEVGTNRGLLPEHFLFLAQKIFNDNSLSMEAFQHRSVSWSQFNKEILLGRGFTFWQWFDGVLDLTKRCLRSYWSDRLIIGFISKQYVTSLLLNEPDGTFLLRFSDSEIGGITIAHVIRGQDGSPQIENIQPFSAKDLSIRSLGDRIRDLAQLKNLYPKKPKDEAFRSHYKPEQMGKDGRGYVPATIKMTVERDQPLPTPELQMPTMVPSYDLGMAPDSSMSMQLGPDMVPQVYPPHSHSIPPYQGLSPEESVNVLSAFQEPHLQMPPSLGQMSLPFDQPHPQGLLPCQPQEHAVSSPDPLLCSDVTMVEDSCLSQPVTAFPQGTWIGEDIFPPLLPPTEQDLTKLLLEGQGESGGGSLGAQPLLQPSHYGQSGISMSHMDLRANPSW
Briefly: Stat6 Degrader Assay (HiBiT based, HeLa LgBiT clone 4.14). The format is cell-based. The following applies: HeLa LgBiT clone 4.14 HiBiT-STAT6, 4-24 h incubation; values given for compounds with >80% Emax; geometric mean; read-out: STAT6 degradation DC50. In short, it runs like this: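 HeLa LgBiT clone 4.14 cells with CRISPR HiBiT-tagged endogenous STAT6, 5000 cells/well, compound dosed then incubated 4-24 h at 37° C, 5% CO2. Nano-Glo substrate added, 0.5 h, luminescence read as non-degraded STAT6. Terfenadine 50 μM (cell kill) defines 100% degradation.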
(The HiBiT peptide binds its large partner to form an active luciferase.)

The test system of test [2] is Eotaxin-3 release in human whole blood stimulated with IL-4. The experiment in a line: Human Whole Blood Eotaxin-3 Assay (IL-4 stimulated eotaxin-3 release). The test is classed as cell-based. Conditions: IL-4 stimulation, 48 h, values given for compounds with >80% Emax, geometric mean. In short, it runs like this: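 Lithium-heparin human whole blood preincubated 2 h at 37° C with 4-fold serially diluted compounds (0.5% DMSO), then stimulated with recombinant human IL-4 ([…]) for 48 h. Eotaxin-3 (CCL26) in supernatant quantified by MSD immunoassay.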

pEC50: −log10 of the molar value.

In general, DC50 refers to the midpoint of the concentration-degradation curve. As a reminder, the pEC50 is the negative decadic logarithm of the EC50, by convention in mol/L. For the compound `CNc1ccn(-c2ccnc3c2cc([C@H](C)N2CC=C(c4c(C)cc(C(=O)N(C)C5CCN(C6CCN(Cc7ccc8c(c7)n(C)c(=O)n8C7CCC(=O)NC7=O)CC6)CC5)cc4F)CC2)n3C)c(=O)c1` (stereo partly drawn) [Example 3u35, N-(1′-((1-(2,6-dioxopiperidin-3-yl)-3-methyl-2-oxo-2,3-dihydro-1H-benzo[d]imidazol-5-yl)methyl)-[1,4′-bipiperidin]-4-yl)-3-fluoro-N,5-dimethyl-4-(1-((S)-1-(1-methyl-4-(4-(methylamino)-2-oxopyridin-1 (2H)-yl)-1H-pyrrolo[2,3-b]pyridin-2-yl)ethyl)-1,2,3,6-tetrahydropyridin-4-yl)benzamide], the 50% degradation concentration (DC50) in test [1] was 9.6 nM. In test [2], this compound showed a negative logarithm of the EC50 (pEC50) of 8.26.

As for `CNc1cc(=O)n(-c2ccnc3c2cc([C@H](C)N2CCC(c4ccc(C(=O)N5CCC(CN6CCN(Cc7ccc8c(c7)C7(CC7)C(=O)N8C7CCC(=O)NC7=O)C[C@@H]6C)CC5)cc4)CC2)n3C)cc1F` (stereo partly drawn) [Example 3u36, 3-(5′-(((S)-4-((1-(4-(1-((S)-1-(4-(5-fluoro-4-(methylamino)-2-oxopyridin-1 (2H)-yl)-1-methyl-1H-pyrrolo[2,3-b]pyridin-2-yl)ethyl)piperidin-4-yl)benzoyl)piperidin-4-yl)methyl)-3-methylpiperazin-1-yl)methyl)-2′-oxospiro[cyclopropane-1,3′-indolin]-1′-yl)piperidine-2,6-dione], the DC50 in test [1] worked out at 1.4 nM. In test [2], this compound gave a pEC50 of 8.48.

Regarding `Cc1cc(C(=O)N2CCC(CN3CCN(Cc4ccc5c(c4)n(C)c(=O)n5C4CCC(=O)NC4=O)C[C@@H]3C)CC2)cc(F)c1C1CCN(Cc2cc3c(-n4ccc5c(c4=O)CCN5)ccnc3n2C)CC1` (stereo partly drawn) [Example 3u39, 3-(5-(((S)-4-((1-(3-fluoro-5-methyl-4-(1-((1-methyl-4-(4-oxo-1,2,3,4-tetrahydro-5H-pyrrolo[3,2-c]pyridin-5-yl)-1H-pyrrolo[2,3-b]pyridin-2-yl)methyl)piperidin-4-yl)benzoyl)piperidin-4-yl)methyl)-3-methylpiperazin-1-yl)methyl)-3-methyl-2-oxo-2,3-dihydro-1H-benzo[d]imidazol-1-yl)piperidine-2,6-dione], the DC50 in test [1] turned out to be 4.3 nM. In test [2], the pEC50 was 8.64.

For the compound `CNc1ccn(-c2ccnc3c2cc(CN2CCC(c4c(F)cc(C(=O)N5CCC(CN6CCN(Cc7cc8c(cc7F)N(C7CCC(=O)NC7=O)C(=O)C87CC7)CC6)CC5)cc4F)CC2)n3C)c(=O)c1` (stereo not shown) [Example 3u42, 3-(5′-((4-((1-(3,5-difluoro-4-(1-((1-methyl-4-(4-(methylamino)-2-oxopyridin-1 (2H)-yl)-1H-pyrrolo[2,3-b]pyridin-2-yl)methyl)piperidin-4-yl)benzoyl)piperidin-4-yl)methyl)piperazin-1-yl)methyl)-6′-fluoro-2′-oxospiro[cyclopropane-1,3′-indolin]-1′-yl)piperidine-2,6-dione], the DC50 in test [1] is 13.2 nM. This compound also showed a negative logarithm of the EC50 (pEC50) in test [2] of 7.86.

`CNc1ccn(-c2ccnc3c2cc(CN2CC=C(c4c(F)cc(C(=O)N5CCC(CN6CCN(Cc7ccc8c(c7)C(C)(C)C(=O)N8C7CCC(=O)NC7=O)C[C@@H]6C)CC5)cc4F)CC2)n3C)c(=O)c1` (stereo partly drawn) [Example 3u45, 3-(5-(((S)-4-((1-(3,5-difluoro-4-(1-((1-methyl-4-(4-(methylamino)-2-oxopyridin-1 (2H)-yl)-1H-pyrrolo[2,3-b]pyridin-2-yl)methyl)-1,2,3,6-tetrahydropyridin-4-yl)benzoyl)piperidin-4-yl)methyl)-3-methylpiperazin-1-yl)methyl)-3,3-dimethyl-2-oxoindolin-1-yl)piperidine-2,6-dione]: the half-maximal degradation concentration (DC50) in test [1] was 3.9 nM. The compound also had a negative logarithm of the EC50 (pEC50) in test [2] of 8.35.

Take `CNc1cc(=O)n(-c2ccnc3c2cc(CN2CCC(c4c(F)cc(C(=O)N5CCC(CN6CCN(Cc7ccc8c(c7)C(C)(C)C(=O)N8C7CCC(=O)NC7=O)C[C@@H]6C)CC5)cc4F)CC2)n3C)cc1F` (stereo partly drawn) [Example 3u48, 3-(5-(((S)-4-((1-(3,5-difluoro-4-(1-((4-(5-fluoro-4-(methylamino)-2-oxopyridin-1 (2H)-yl)-1-methyl-1H-pyrrolo[2,3-b]pyridin-2-yl)methyl)piperidin-4-yl)benzoyl)piperidin-4-yl)methyl)-3-methylpiperazin-1-yl)methyl)-3,3-dimethyl-2-oxoindolin-1-yl)piperidine-2,6-dione]: the DC50 in test [1] amounted to 11.2 nM. In test [2], the pEC50 is 8.11.

In the case of `CNc1cc(=O)n(-c2ccnc3c2cc(CN2CC=C(c4c(F)cc(C(=O)N5CCC(CN6CCN(Cc7ccc8c(c7)n(C)c(=O)n8C7CCC(=O)NC7=O)C[C@@H]6C)CC5)cc4F)CC2)n3C)cc1F` (stereo partly drawn) [Example 3u54, 3-(5-(((S)-4-((1-(3,5-difluoro-4-(1-((4-(5-fluoro-4-(methylamino)-2-oxopyridin-1 (2H)-yl)-1-methyl-1H-pyrrolo[2,3-b]pyridin-2-yl)methyl)-1,2,3,6-tetrahydropyridin-4-yl)benzoyl)piperidin-4-yl)methyl)-3-methylpiperazin-1-yl)methyl)-3-methyl-2-oxo-2,3-dihydro-1H-benzo[d]imidazol-1-yl)piperidine-2,6-dione], the DC50 in test [1] came to 12 nM. In addition, the pEC50 in test [2] was 8.57.

With `CNc1cc(=O)n(-c2ccnc3c2cc(CN2CCC(c4c(F)cc(C(=O)N5CCC(CN6CCN(Cc7ccc8c(c7)C(C)(C)C(=O)N8C7CCC(=O)NC7=O)CC6)CC5)cc4F)CC2)n3C)cc1F` (stereo not shown) [Example 3u57, 3-(5-((4-((1-(3,5-difluoro-4-(1-((4-(5-fluoro-4-(methylamino)-2-oxopyridin-1 (2H)-yl)-1-methyl-1H-pyrrolo[2,3-b]pyridin-2-yl)methyl)piperidin-4-yl)benzoyl)piperidin-4-yl)methyl)piperazin-1-yl)methyl)-3,3-dimethyl-2-oxoindolin-1-yl)piperidine-2,6-dione], the half-maximal degradation concentration (DC50) in test [1] amounted to 12 nM. In test [2], this compound gave a pEC50 of 7.60.

Regarding `CNc1cc(=O)n(-c2ccnc3c2cc(CN2CCC(c4c(F)cc(C(=O)N5CCC(CN6CCN(Cc7ccc8c(c7)n(C)c(=O)n8C7CCC(=O)NC7=O)C[C@@H]6C)CC5)cc4F)CC2)n3C)cc1F` (stereo partly drawn) [Example 3u60, 3-(5-(((S)-4-((1-(3,5-difluoro-4-(1-((4-(5-fluoro-4-(methylamino)-2-oxopyridin-1 (2H)-yl)-1-methyl-1H-pyrrolo[2,3-b]pyridin-2-yl)methyl)piperidin-4-yl)benzoyl)piperidin-4-yl)methyl)-3-methylpiperazin-1-yl)methyl)-3-methyl-2-oxo-2,3-dihydro-1H-benzo[d]imidazol-1-yl)piperidine-2,6-dione], in test [1], the DC50 amounted to 0.7 nM. In addition, the pEC50 in test [2] is 8.80.

Take `CNc1cc(=O)n(-c2ccnc3c2cc([C@H](C)N2CC=C(c4c(C)cc(C(=O)N5CCC(CN6CCN(c7ccc8c(c7)C7(CC7)C(=O)N8C7CCC(=O)NC7=O)C[C@@H]6C)CC5)cc4F)CC2)n3C)cc1F` (stereo partly drawn) [Example 3u63, 3-(5′-((S)-4-((1-(3-fluoro-4-(1-((S)-1-(4-(5-fluoro-4-(methylamino)-2-oxopyridin-1 (2H)-yl)-1-methyl-1H-pyrrolo[2,3-b]pyridin-2-yl)ethyl)-1,2,3,6-tetrahydropyridin-4-yl)-5-methylbenzoyl)-piperidin-4-yl)methyl)-3-methylpiperazin-1-yl)-2′-oxospiro[cyclopropane-1,3′-indolin]-1′-yl)-piperidine-2,6-dione]: in test [1], the DC50 worked out at 12.9 nM. Moreover, in test [2], the pEC50 is 7.17.

In the case of `CNc1cc(=O)n(-c2ccnc3c2cc([C@H](C)N2CC=C(c4c(C)cc(C(=O)N5CCC(CN6CCN(Cc7ccc8c(c7)C7(CC7)C(=O)N8C7CCC(=O)NC7=O)CC6)CC5)cc4F)CC2)n3C)cc1F` (stereo partly drawn) [Example 3u66, 3-(5′-((4-((1-(3-fluoro-4-(1-((S)-1-(4-(5-fluoro-4-(methylamino)-2-oxopyridin-1 (2H)-yl)-1-methyl-1H-pyrrolo[2,3-b]pyridin-2-yl)ethyl)-1,2,3,6-tetrahydropyridin-4-yl)-5-methylbenzoyl)-piperidin-4-yl)methyl)piperazin-1-yl)methyl)-2′-oxospiro[cyclopropane-1,3′-indolin]-1′-yl)piperidine-2,6-dione], the DC50 in test [1] was 1.6 nM. In addition, the pEC50 in test [2] is 8.37.
